Experiments:
Assay in all cases: relative viability (nuclei count vs DMSO), 5 days (fraction); higher = more cells survive
CAL-12T = test system: CAL-12T
Method in brief: (§1)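 Relative viability is defined as nuclei in treated wells over nuclei in vehicle wells. Duplicate plates were run and medians reported. Lung cancer cell lines in 1536-well plates were dosed by pin tool one day after seeding, with one drug or with a fixed anchor-drug dose plus five library-drug doses (not always all listed) in √10 steps, and nuclei were counted after 5 days.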

EKVX = test system: EKVX
Method in brief: as §1

H3255 = test system: H3255
Method in brief: as §1

HCC-15 = test system: HCC-15
Method in brief: as §1

HCC-827 = test system: HCC-827
Method in brief: as §1

LCLC-97TM1 = test system: LCLC-97TM1
Method in brief: as §1

LK-2 = test system: LK-2
Method in brief: as §1

NCI-H1355 = test system: NCI-H1355
Method in brief: as §1

NCI-H1650 = test system: NCI-H1650
Method in brief: as §1

NCI-H1734 = test system: NCI-H1734
Method in brief: as §1

NCI-H1755 = test system: NCI-H1755
Method in brief: as §1

NCI-H1975 = test system: NCI-H1975
Method in brief: as §1

NCI-H2228 = test system: NCI-H2228
Method in brief: as §1

NCI-H2342 = test system: NCI-H2342
Method in brief: as §1

NCI-H2405 = test system: NCI-H2405
Method in brief: as §1

NCI-H322M = test system: NCI-H322M
Method in brief: as §1

NCI-H520 = test system: NCI-H520
Method in brief: as §1

NCI-H661 = test system: NCI-H661
Method in brief: as §1

PC-14 = test system: PC-14
Method in brief: as §1

PC-3 [JPC-3] = test system: PC-3 [JPC-3]
Method in brief: as §1

RERF-LC-KJ = test system: RERF-LC-KJ
Method in brief: as §1

Cc1sc2c(c1C)C(c1ccc(Cl)cc1)=N[C@@H](CC(=O)OC(C)(C)C)c1nnc(C)n1-2 [JQ1] + O=C(c1cc(Cc2n[nH]c(=O)c3ccccc23)ccc1F)N1CCN(C(=O)C2CC2)CC1 [Olaparib] (partner 8 µM)
relative viability (CAL-12T; first compound 0.04 µM): 0.715 | relative viability (CAL-12T; first compound 0.1265 µM): 0.823 | relative viability (CAL-12T; first compound 0.4 µM): 0.595 | relative viability (CAL-12T; first compound 1.265 µM): 0.34 | relative viability (CAL-12T; first compound 4 µM): 0.272 | relative viability (EKVX; first compound 0.04 µM): 0.836 | relative viability (EKVX; first compound 0.1265 µM): 0.817 | relative viability (EKVX; first compound 0.4 µM): 0.825 | relative viability (EKVX; first compound 1.265 µM): 0.78 | relative viability (EKVX; first compound 4 µM): 0.399 | relative viability (H3255; first compound 0.04 µM): 0.528 | relative viability (H3255; first compound 0.1265 µM): 0.492 | relative viability (H3255; first compound 0.4 µM): 0.439 | relative viability (H3255; first compound 1.265 µM): 0.305 | relative viability (H3255; first compound 4 µM): 0.264 | relative viability (HCC-15; first compound 0.04 µM): 0.528 | relative viability (HCC-15; first compound 0.1265 µM): 0.641 | relative viability (HCC-15; first compound 0.4 µM): 0.693 | relative viability (HCC-15; first compound 1.265 µM): 0.58 | relative viability (HCC-15; first compound 4 µM): 0.392 | relative viability (HCC-827; first compound 0.04 µM): 0.622 | relative viability (HCC-827; first compound 0.1265 µM): 0.477 | relative viability (HCC-827; first compound 1.265 µM): 0.596 | relative viability (HCC-827; first compound 4 µM): 0.363 | relative viability (LCLC-97TM1; first compound 0.04 µM): 0.354 | relative viability (LCLC-97TM1; first compound 0.1265 µM): 0.297 | relative viability (LCLC-97TM1; first compound 0.4 µM): 0.297 | relative viability (LCLC-97TM1; first compound 1.265 µM): 0.149 | relative viability (LCLC-97TM1; first compound 4 µM): 0.108 | relative viability (LK-2; first compound 0.04 µM): 0.639 | relative viability (LK-2; first compound 0.1265 µM): 0.74 | relative viability (LK-2; first compound 0.4 µM): 0.409 | relative viability (LK-2; first compound 1.265 µM): 0.155 | relative viability (LK-2; first compound 4 µM): 0.15 | relative viability (NCI-H1355; first compound 0.04 µM): 0.626 | relative viability (NCI-H1355; first compound 0.1265 µM): 0.697 | relative viability (NCI-H1355; first compound 0.4 µM): 0.643 | relative viability (NCI-H1355; first compound 1.265 µM): 0.403 | relative viability (NCI-H1355; first compound 4 µM): 0.344 | relative viability (NCI-H1650; first compound 0.04 µM): 0.725 | relative viability (NCI-H1650; first compound 0.1265 µM): 0.669 | relative viability (NCI-H1650; first compound 0.4 µM): 0.476 | relative viability (NCI-H1650; first compound 1.265 µM): 0.21 | relative viability (NCI-H1650; first compound 4 µM): 0.149 | relative viability (NCI-H1734; first compound 0.04 µM): 0.606 | relative viability (NCI-H1734; first compound 0.1265 µM): 0.556 | relative viability (NCI-H1734; first compound 0.4 µM): 0.563 | relative viability (NCI-H1734; first compound 1.265 µM): 0.47 | relative viability (NCI-H1734; first compound 4 µM): 0.349 | relative viability (NCI-H1755; first compound 0.04 µM): 0.887 | relative viability (NCI-H1755; first compound 0.1265 µM): 0.824 | relative viability (NCI-H1755; first compound 0.4 µM): 0.806 | relative viability (NCI-H1755; first compound 1.265 µM): 0.644 | relative viability (NCI-H1755; first compound 4 µM): 0.611 | relative viability (NCI-H1975; first compound 0.04 µM): 0.747 | relative viability (NCI-H1975; first compound 0.1265 µM): 0.608 | relative viability (NCI-H1975; first compound 0.4 µM): 0.473 | relative viability (NCI-H1975; first compound 1.265 µM): 0.281 | relative viability (NCI-H1975; first compound 4 µM): 0.342 | relative viability (NCI-H2228; first compound 0.04 µM): 0.628 | relative viability (NCI-H2228; first compound 0.1265 µM): 0.434 | relative viability (NCI-H2228; first compound 0.4 µM): 0.356 | relative viability (NCI-H2228; first compound 1.265 µM): 0.123 | relative viability (NCI-H2228; first compound 4 µM): 0.181 | relative viability (NCI-H2342; first compound 0.04 µM): 0.5 | relative viability (NCI-H2342; first compound 0.1265 µM): 0.501 | relative viability (NCI-H2342; first compound 0.4 µM): 0.476 | relative viability (NCI-H2342; first compound 1.265 µM): 0.313 | relative viability (NCI-H2342; first compound 4 µM): 0.295 | relative viability (NCI-H2405; first compound 0.04 µM): 0.867 | relative viability (NCI-H2405; first compound 0.4 µM): 0.851 | relative viability (NCI-H2405; first compound 1.265 µM): 0.693 | relative viability (NCI-H2405; first compound 4 µM): 0.433 | relative viability (NCI-H322M; first compound 0.04 µM): 0.597 | relative viability (NCI-H322M; first compound 0.1265 µM): 0.933 | relative viability (NCI-H322M; first compound 0.4 µM): 0.654 | relative viability (NCI-H322M; first compound 1.265 µM): 0.536 | relative viability (NCI-H322M; first compound 4 µM): 0.461 | relative viability (NCI-H520; first compound 0.04 µM): 0.285 | relative viability (NCI-H520; first compound 0.1265 µM): 0.298 | relative viability (NCI-H520; first compound 0.4 µM): 0.251 | relative viability (NCI-H520; first compound 1.265 µM): 0.165 | relative viability (NCI-H520; first compound 4 µM): 0.156 | relative viability (NCI-H661; first compound 0.04 µM): 0.75 | relative viability (NCI-H661; first compound 0.1265 µM): 0.709 | relative viability (NCI-H661; first compound 0.4 µM): 0.781 | relative viability (NCI-H661; first compound 1.265 µM): 0.536 | relative viability (NCI-H661; first compound 4 µM): 0.427 | relative viability (PC-14; first compound 0.04 µM): 0.271 | relative viability (PC-14; first compound 0.1265 µM): 0.153 | relative viability (PC-14; first compound 0.4 µM): 0.14 | relative viability (PC-14; first compound 1.265 µM): 0.0655 | relative viability (PC-14; first compound 4 µM): 0.0723 | relative viability (PC-3 [JPC-3]; first compound 0.04 µM): 1.1 | relative viability (PC-3 [JPC-3]; first compound 0.1265 µM): 0.992 | relative viability (PC-3 [JPC-3]; first compound 0.4 µM): 1.05 | relative viability (PC-3 [JPC-3]; first compound 1.265 µM): 0.66 | relative viability (PC-3 [JPC-3]; first compound 4 µM): 0.385 | relative viability (RERF-LC-KJ; first compound 0.04 µM): 0.904 | relative viability (RERF-LC-KJ; first compound 0.1265 µM): 0.808 | relative viability (RERF-LC-KJ; first compound 0.4 µM): 0.669 | relative viability (RERF-LC-KJ; first compound 1.265 µM): 0.42 | relative viability (RERF-LC-KJ; first compound 4 µM): 0.338
